For data set [1], the system named is citric acid-induced cough responses. The data set is described as follows: Citric acid aerosol-induced cough in conscious guinea-pigs, 5 min aerosol pre-treatment. Format: in vivo, guinea-pig. The settings on record: for Mean latency of cough: time to onset of first cough after initiation of citric acid aerosol: 5 min pre-treatment; for Mean latency of cough: time to onset of first cough after initiation of citric acid aerosol / Total coughs: number of coughs over 15 min following initiation of 1M citric acid aerosol: mean ± SEM; for Inhibition of cough responses compared with matched vehicle pre-treated guinea pigs: Example 2, aerosol pre-treatment immediately before citric acid exposure; for Anti-tussive activity (in words): Example 2, experiment similar to Example 1. From the text: Male albino Dunkin-Hartley strain guinea-pigs (weight 300-400 g) were supplied by Harlan UK Ltd., Bicester, Oxon, UK.
The method used was modified from that described by Adcock J. J., Schneider C. and Smith T. W., “Effects of Morphine and a Novel Opioid Pentapeptide BW443C, on Cough, Nociception and Ventilation in the Unanaesthetized Guinea-pig”, Br. J. Pharmacol., 93, 93-100 (1988). Individual conscious guinea-pigs were placed unrestrained into a sealed purpose built perspex exposure chamber (3,000 cm^3 volume) and allowed to acclimatize prior to aerosol administration.
Cylinder air was introduced into the exposure chamber at a flow rate of 1 liter/min, maintained by a needle valve and monitored by a rotameter. From the rotameter the air passed through the cup of an ultrasonic nebulizer (DeVilbis UltraNeb 2000) which was used to generate aerosols of drug or citric acid at 0.15 ml/min. A Fleisch pneumotachograph, connected to a differential pressure transducer (Grass model PT5) was attached to the outflow from the exposure chamber and provided a measurement of airflow from the chamber. The differential pressure transducer was connected to a Grass polygraph from which a hard copy record was produced. The output from the polygraph was directed to a computerized data acquisition system (Poh-Ne-Mah) for real time recording of data. A tie-clip microphone was placed in the exposure chamber and connected via a pre-amplifier to a loudspeaker output to provide the observer with an audio monitor of responses.
Cough responses were induced by exposure to an aerosol of citric acid (1M) for 10 minutes. Animals were continuously monitored by trained observer, and the number of coughs were counted during a 15 minute period from commencement of the citric acid aerosol administration.
The three types of response were differentiated primarily by sound and visual observation. […] Data recorded for individual guinea-pigs on the Poh-Ne-Mah system was stored on an optical disk. Each cough was marked on the Grass polygraph paper trace, and from these record numbers, frequency and time of onset of coughs were determined. The cough response was defined by a characteristic coughing sound and behavior, associated with a marked biphasic pressure change.
Quantities of drugs were weighed out and dissolved in a vehicle. Equal volumes were aliquotted into sample tubes before being passed, together with another sample tube containing the same volume of vehicle, to an independent observer for coding. Pre-treatments were matched by concentration together with a vehicle control group. Five guinea-pigs were randomly allocated to each treatment group. […] The sequence of pre-treatment administration was determined according to a 4×4 Latin Square design.
Data presented as the mean ±SEM number of coughs produced by individual guinea-pigs within each group during the 15 minute observation period or mean±SEM latency of cough were analyzed using one way analysis of variance to compare mean responses between matched groups of animals (doses) and between unmatched groups (treatments) followed by the Tukey-Kramer multiple comparison test where appropriate.

For data set [2] the test system is unchanged. The experiment in a line: Duration of anti-tussive effect against citric acid-induced cough, pre-treatment at various times. Format: in vivo, guinea pig. The settings on record: 10 mg/ml aerosol. The method, then:
Test agents or vehicle were administered as aerosol pre-treatments (10 mg/ml, 5 minute duration) at 5 minutes, 30 minutes, 1 hour, 2 hours and 4 hours prior to induction of cough responses by citric acid aerosol.

The subject of data set [3] is capsaicin aerosol-induced cough. The experiment in a line: Capsaicin aerosol-induced cough in conscious guinea pigs, 5 min aerosol pre-treatment. Format: in vivo, guinea pig. The settings on record: for Reduction of number of capsaicin-induced cough responses compared with matched vehicle: 5 minute pre-treatment; for Change of mean latency of cough onset: capsaicin-induced cough.

The test system of data set [4] is citric acid-induced cough responses. The experiment in a line: Therapeutic aerosol treatment after induction of cough by citric acid aerosol. The note with it: aerosol 10 mg/ml for 5 min, given 2 minutes after citric acid exposure began. Format: in vivo, guinea pig.
Procedure: Vehicle or test agents were administered as aerosols (10 mg/ml; 5 minute duration) 2 minutes after exposure to citric acid aerosol began. Cough responses were recorded during a 15 minute observation period (t=0 to t=15 min.) from initiation of citric acid exposure.
Data set [5] shares this test system. The data set is described as follows: Citric acid-induced cough responses in ozone-exposed conscious rabbits. Format: in vivo, rabbit. The settings on record: rabbits exposed to ozone 3 ppm 1 hour, aerosol 10 mg/ml, citric acid 1.6 M, 10 minute count; vehicle 22.0±5.1. The method, then:
Investigation of Antitussive Activity of Aerosolized Compound 1 on Citric Acid-induced Cough Responses in Conscious Rabbits
Twenty-two male New Zealand white rabbits were randomly allocated to either of two groups of 11 rabbits.
Pairs of rabbits (control versus test) were placed in individual exposure chambers with an airflow of 5 liter/min through the chambers.
Each rabbit was exposed to ozone (3 ppm) for 1 hour.
The rabbits were then immediately exposed to aerosols of either vehicle (chamber 1) or Compound 1 (10 mg/ml, chamber 2) at a nebulization rate of 0.9 ml/min.
Cough responses were induced with citric acid aerosol (1.6 M).
Coughs were counted during the 10 minute exposure to citric acid.

This is an account of results in patent US6362197B1, “Compositions and method for treatment of cough” (Cardiome Pharma Corp., priority 1998, dated 2002).

The melting point is the temperature of the solid-liquid transition. Take `C[N+](C)(CC(=O)Nc1ccccc1)CC(=O)Nc1ccccc1.[Cl-]` [Compound 1, N,N-Bis-(phenylcarbamoylmethyl)dimethylammonium chloride]: the melting point was 177 to 178 °C. Besides, in data set [1] (aerosol conc. 0.1 mg/ml), the “Percentage reduction of the cough response compared with matched vehicle control groups” value (from here on “Percentage reduction”) is reported as “(25.3%)”, the “Mean latency of cough: time to onset of first cough after initiation of citric acid aerosol” value (shortened to “Mean latency of cough: time”) is 88 ± 6 s and the “Total coughs: number of coughs over 15 min following initiation of 1M citric acid aerosol” value came out at 22.4 ± 6.0. Besides, in data set [1] (aerosol conc. 1.0 mg/ml), the “Cough frequency (in words)” value is recorded as “frequency of coughs was reduced”, the “Percentage reduction” value is recorded as “(40.4%)”, the “Mean latency of cough: time” value was 103 ± 11 s and the “Total coughs: number of coughs over 15 min following initiation of 1M citric acid aerosol” value is 16.8 ± 4.0. For the same molecule, in data set [1] (aerosol conc. 10 mg/ml), the “Guinea-pigs in the group with cough responses completely inhibited” value is on record as 4 of the 5, the “Latency of cough onset (in words)” value is on record as “prolonged the latency of cough onset”, the “Percentage reduction” value is recorded as “(97.6%)” and the “Sneezing in animals that did not cough” value was “marked absence of sneezing”. For the same molecule, in data set [1] (aerosol conc. 10 mg/ml), the “Mean latency of cough: time” value is reported as 778 ± 137^-- seconds and the “Total coughs: number of coughs over 15 min following initiation of 1M citric acid aerosol” value is listed as 0.6 ± 0.6^--. The “Inhibition of cough responses” value in data set [2] (pre-treatment 30 minutes before citric acid) came to 63%. For the same molecule, the “Inhibition of cough responses” value in data set [2] (pre-treatment 60 minutes before citric acid) came out at 60.7%. For the same molecule, in data set [2] (pre-treatment 2 hours before citric acid), the “Inhibition of cough responses” value came to 44.0%. Moreover, the “Reduction in mean number of citric acid-induced cough responses” value in data set [2] (pre-treatment 4 hours before citric acid) is listed as 15%. For the same molecule, the “Inhibition of cough responses compared with matched vehicle pre-treated guinea pigs” value in data set [2] (pre-treatment immediately before citric acid exposure) was determined as 84.9%. The “Increase of latency of cough onset” value in data set [2] (pre-treatment immediately prior to citric acid exposure) was 3.3 fold. Also, in data set [3] (aerosol 10 mg/ml), the “Reduction of number of capsaicin-induced cough responses compared with matched vehicle” value (“Reduction of number … with matched vehicle” for short) stood at 25% and the “Change of mean latency of cough onset” value is on record as “no significant effect”. In data set [3] (aerosol 30 mg/ml), the “Reduction of number … with matched vehicle” value was determined as 76.9% and the “Change of mean latency of cough onset” value stood at 2.1 fold. The “Inhibition of number of cough responses between t=2 and t=10 minutes” value in data set [4] is reported as 70.8%. Besides, in data set [4] (t=0 to t=15 min), the “Inhibition of total number of cough responses during the 15 minute observation period compared with matched vehicle” value is on record as 63.8%. Moreover, the “Number of citric acid-induced cough responses, mean ± SEM” value in data set [5] worked out at 2.7±0.9 coughs.
As to `Cc1cccc(C)c1NC(=O)C[N+](C)(C)C.[Cl-]` [Compound 2, N-(2,6-dimethylphenylcarbamoylmethyl) trimethylammonium chloride], in data set [1], the “Inhibition of cough responses compared with matched vehicle pre-treated guinea pigs” value is given as “over 80%” and the “Anti-tussive activity (in words)” value was “effective”.
In the case of `CC[N+](CC)(CC)CC(=O)Nc1c(C)cccc1C.[Cl-]` [Compound 3, N-(2,6-dimethylphenylcarbamoylmethyl) triethylammonium chloride], in data set [1], the “Inhibition of cough responses compared with matched vehicle pre-treated guinea pigs” value is “over 70%” and the “Anti-tussive activity (in words)” value is listed as “effective”.
In the case of `CCN(CC)CC(=O)Nc1c(C)cccc1C` [Lidocaine, lidocaine, reference compound], the “Reduction of number … with matched vehicle” value in data set [3] (aerosol 10 mg/ml) is listed as 42.2%; in data set [3] (aerosol 30 mg/ml), 10.3%. The “Change of mean latency of cough onset” value in data set [3] (aerosol 10 mg/ml) was found to be 1.2 fold; in data set [3] (aerosol 30 mg/ml), 0.8 fold.
